Test results from patent US6369101B1, “Therapeutic method to treat herpes virus infection” (Regents of the University of Minnesota, priority 1999, dated 2002).
In brackets after ≈: the same amount, converted by molar mass.

How the values were obtained:
[1] = test system: HSV-1 strain F; assay: CPE inhibition, HSV-1 strain F in HEp-2 cells; on Cytopathic Effect (CPE) Inhibition HSV-1 Strain F: key: +++ = Complete cytopathic effect; ++ = Moderate cytopathic effect; + = Minimum cytopathic effect; − = No cytopathic effect; type: cell-based, herpes simplex virus type 1; settings: for Cytopathic Effect (CPE) Inhibition HSV-1 Strain F: conc. per compound (ng/ml)
[2] = test system: HSV-2 (strain G); assay: Plaque reduction assay, HSV-2 strain G in HEp-2 cells; type: cell-based, herpes simplex virus type 2; settings: HSV-2 virus control 47
Experimental: HEp-2 cells were grown to monolayer in 24 well tissue culture plates in DMEM containing 10% fetal calf serum at 37° C. for 24-36 hours in the presence of 5% CO2. The monolayer of HEp-2 cells was infected with 0.1 ml of HSV- 1 (strain F) or HSV-2 (strain G) containing 100 pfu. The viruses were allowed to adsorb for 1 hour at 37° C. in the presence of 5% CO2. All wells containing virus infected cells except virus control were overlaid with 0.9 ml of DMEM and 1 ml of test compound. The virus control and cell control received DMEM only. All microtiter plates were incubated at 37° C. in the presence of 5% CO2 and observed twice daily for 72 hours for viral CPE. At the end of the experiment, plates were stained with 0.1% crystal violet and the results were quantified by counting plaque forming units.

[3] = test system: HSV-2 strain MS; assay: CPE inhibition assay, HSV-2 MS in human foreskin fibroblast cells; type: cell-based, herpes simplex virus type 2; settings: for EC50 HSV-2 MS: CPE inhibition in HFF cells; on Qualitative CPE at 2.0 ml dose HSV-2 MS: key: +++ = Complete cytopathic effect; ++ = Moderate cytopathic effect; + = Minimum cytopathic effect; − = No cytopathic effect
[4] = test system: Primary human foreskin fibroblast cells (HFF); assay: Cell proliferation assay (cytotoxicity) in HFF cells; type: cell-based; settings: for CC50: Human foreskin fibroblast cells, reduces growth of uninfected cells by 50%
[5] = test system: Primary Rabbit Kidney cells; assay: Cytotoxic effect in primary rabbit kidney cells; type: cell-based; settings: for CC50: Primary Rabbit Kidney cell line
Experimental: Human laryngeal epithelial carcinoma cells (HEp-2, ATCC, Rockville, Md.) were used for testing of antiviral compounds by cytopathic effect (CPE) inhibition and plaque reduction assay. […] HEp-2, African green monkey kidney cells (Vero, ATCC), HFF and primary rabbit kidney cells were used to determine the cytotoxic effect of compounds of formula I. These cells were propagated in Dulbeco's modified Eagle's medium (DMEM) (Sigma, USA) supplemented with 10% inactivated fetal calf serum (FCS), 25 mM HEPES, 0.2% sodium bicarbonate and 1% penicillin/-streptomycin at 37° C. in the presence of 5% CO2.
HFF, Vero and HEp-2 cells were seeded in 24-well tissue culture plates at a concentration of […] in DMEM containing 10% FCS and incubated for 24 hours at 37° C. in the presence of 5% CO2. To the monolayer of these cells 0.5, 1.0, 1.5 and 2.0 ml of solution of antiviral compounds were added in the respective wells in duplicate and the cells were then incubated in a 5% CO2 incubator at 37° C. for 72 hours. The cells were observed daily for any change in morphology. […] At the end of this time, the media-drug solution was removed and the cells washed. One ml of 0.25% trypsin was added to each well and incubated until the cells start to come off of the plate. The cells-media mixture was then pipetted up and down several times to resuspend the cells and 0.2 ml of the cell suspension was added to 9.8 ml of trypan blue and cells were counted using hemocytometer. Each sample was counted three times with three replicate wells per sample.

[6] = test system: HFF cells; assay: CC50 in HFF cells (Table 3); type: cell-based, human; settings: HFF cells
Experimental: The cells were observed daily for any change in morphology. The rounding and lysis of cells were observed if the compound has cytotoxic effect. At the end of this time, the media-drug solution was removed and the cells washed. […] The cells-media mixture was then pipetted up and down several times to resuspend the cells and 0.2 ml of the cell suspension was added to 9.8 ml of trypan blue and cells were counted using hemocytometer. Each sample was counted three times with three replicate wells per sample.

[7] = conc. per compound (ng/ml) (Acyclovir 250)
[8] = HFF cells, solution conc. per compound (ng/ml) (Acyclovir 250)
[9] = Varicella-Zoster Virus section of Table 3

## C=C(C)[C@@H]1CC[C@]2(CO)CC[C@]3(C)[C@H](CC[C@@H]4[C@@]5(C)CC[C@H](O)C(C)(C)[C@@H]5CC[C@]43C)[C@@H]12 [Betulin, lup-20(29)-ene-3β, 28-diol, reference compound]
[1]
  Cytopathic Effect (CPE) Inhibition HSV-1 Strain F: +
[1]; qualitative CPE inhibition assay
  anti HSV-1 activity (in words): significant anti HSV-1 activity
[2]; [7]
  Plaque Reduction Assay Average pfu/10^5 Cells HSV-2 Strain G: 16 pfu/10^5 Cells
[3]
  EC50 HSV-2 MS: ~0.125 µg/mL (≈ 0.282 µM)
[3]; HFF cells, HSV-2
  anti HSV-2 activity (in words): significant anti HSV-2 activity
[3]; [8]
  Qualitative CPE at 2.0 ml dose HSV-2 MS: +
[4]; HFF cells
  cytotoxicity (in words): more toxic
[4]; HFF cells, solution conc. per compound (ng/ml) (Acyclovir 250), 2.0 ml dose
  Qualitative Cytotoxic Effect at 2.0 ml dose: −
[4]
  CC50: 250 ng/mL (≈ 0.565 µM)
[5]
  CC50: >0.25 µg/mL
[5]; primary rabbit kidney cells
  cytotoxicity (in words): No cytotoxicity
[6]; Human Cytomegalovirus section of Table 3
  CC50: 0.0142 µg/mL (≈ 0.0321 µM)
[6]; [9]
  CC50: 0.0141 µg/mL (≈ 0.0318 µM)

## acycloguanosine [Acyclovir, reference compound]
[1]
  Cytopathic Effect (CPE) Inhibition HSV-1 Strain F: +++
[2]; Conc. 12500 ng/ml
  Plaque Reduction Assay Average pfu/10^5 Cells HSV-2 Strain G: 30 pfu/10^5 Cells
[2]; [7]
  Plaque Reduction Assay Average pfu/10^5 Cells HSV-2 Strain G: 42 pfu/10^5 Cells
[3]
  EC50 HSV-2 MS: 6 µg/mL
[3]; HFF cells, Conc. 12500 ng/ml
  Qualitative CPE at 2.0 ml dose HSV-2 MS: +
[3]; [8]
  Qualitative CPE at 2.0 ml dose HSV-2 MS: +++
[4]; listed as Acyclovir ®
  CC50: >12500 ng/mL
[4]; listed as Acyclovir®
  CC50: > 12,500 ng/ml
[5]
  CC50: >0.25 µg/mL
[6]; [9]
  CC50: >100 µg/mL
